We go through 13 molecules from US20030236218A1, “Aryl phosphate derivatives of d4T with selective activity against adenovirus and HIV” (priority 2002, published 2003).

In brackets after ≈: the same amount, converted by molar mass. Marks after values point to notes of the source that are not given here.

Data set [1] is described as follows: Hydrolysis rate in alkali conditions. It counts as physicochemical. On the procedure:
Statistical analysis. Each drug was tested at 6-7 different concentrations ranging from 0.0001 μM to 100 μM. Each assay was set up in triplicate wells and repeated 1-3 times. An IC50 value was calculated from each set of triplicate wells using nonlinear regression modeling of the exponential form of the linearized equation (Statview, SAS Institute, Inc., Cary, N.C.). Hydrolysis rates were determined by fitting single exponential decay equations to the disappearance of the compound in alkali conditions (all R^2 values greater than 0.85). The IC50 values obtained were correlated to the log transformed hydrolysis rate constants by fitting a linear model (JMP Software, SAS Institute Inc., Cary, N.C.). P-values less than 0.05 were deemed significant.

Another data set can be described thus: Solubility. It counts as physicochemical.
Data set [2] can be described thus: Octanol/water partition coefficient, shake flask method. Particulars: 4 hours at room temperature. It counts as physicochemical. On the procedure: HPLC purification was achieved using a reverse-phase Lichrospher column (250×4 mm, Hewlett-Packard, RP-18, Cat. #79925) and an isocratic flow (1 ml/minute) consisting of water (70%) and acetonitrile (30%). Melting points were determined using a Melt John's apparatus and are uncorrected. Column chromatography was performed using silica gel obtained from Baker Company. The octanol/water partition coefficient was determined by the shake flask method. The phosphoramidate analogs were added to 2 ml of water and 2 ml of octanol in a glass vial. The mixture was shaken for 4 hours at room temperature. The two phases were carefully separated and filtered through a Millipore filter and analyzed by HPLC. The partition coefficient was calculated using the ratio of the area under the curve for octanol and water, respectively.

Data set [3] concerns adenovirus strain Type 5, strain adenoid 75. The experiment in a line: Adenovirus plaque formation assay in skin fibroblast cell line SF. Format: cell-based, human adenovirus. To be noted: Adenovirus Type 5, 7 days, ± s.e., read-out: IC50, ADV-induced plaque formation. An excerpt:
Virus stocks. The HIV-1 strain used in this study was HTLV-IIIB (Uckun et al., 1998 Antimicro. Agents and Chemother., 42:383-388). The non-HIV viruses included in the present study were the gancyclovir-sensitive cytomegalovirus (CMV) strain AD169 (ATCC VR-538); acyclovir-sensitive herpes simplex virus (HSV) Type I strain HF (ATCC VR-260); acyclovir-sensitive HSV Type II strain G (ATCC VR-734); adenovirus strain Type 5, strain adenoid 75 (ATCC VR-5); enterovirus strain, ECHO 30, strain Bastianni (ATCC VR-322); and respiratory syncytial virus (RSV), strain Long (ATCC VR-26).
Plaque formation assays. Plaque assays were used to examine the activity of the compounds against non-HIV viruses. The skin fibroblast cell line SF (ATCC CRL-2097) was used as a target for AD169, Adenovirus Type 5. […] cell line (ATCC CCL-81) was used as a target for HSV HF and G. The HEP-2 cell line (ATCC CCL-23) was used as a target for the RSV strain Long. These cell lines were cultured at 1×10^5 cells/well in 24-well (all but ECHO 30-infected SF) or 6-well (ECHO 30-infected SF) tissue culture plates with 0.9% methylcellulose or 0.4% SeaPlaque agarose semisolid support. Minimum Essential Medium (MEM) with Earle's salts (Gibco), L-glutamine, non-essential amino acids, 2% heat-inactivated fetal bovine serum, 1% penicillin/streptomycin, and 0.05% gentamicin served as the culture medium. The incubation times were 3 days for HF, G, ECHO 30, and Long; and 7 days for AD169 and Adenovirus Type 5. Plaque counting was performed with a 20X dissecting microscope for AD169, Type 5, ECHO 30, and RSV Long, and with a light box for HF and G. The fixative agent was crystal violet for all viruses, except for the CMV strain AD169 for which methylene blue was used. Percent inhibition of plaque formation was calculated by comparing the plaque numbers from the test substance-treated infected cells with the plaque numbers from untreated infected cells (i.e., virus controls). The IC50 values were determined using the Statview statistics program (SAS Institute, Inc., Cary, N.C.).
Statistical analysis. Each drug was tested at 6-7 different concentrations ranging from 0.0001 μM to 100 μM. Each assay was set up in triplicate wells and repeated 1-3 times. An IC50 value was calculated from each set of triplicate wells using nonlinear regression modeling of the exponential form of the linearized equation (Statview, SAS Institute, Inc., Cary, N.C.). […] The IC50 values obtained were correlated to the log transformed hydrolysis rate constants by fitting a linear model (JMP Software, SAS Institute Inc., Cary, N.C.). P-values less than 0.05 were deemed significant.
The skin fibroblast cell line SF (ATCC CRL-2097) was used as a target for AD169, Adenovirus Type 5, and ECHO 30; the VERO cell line (ATCC CCL-81) was used as a target for HF and G; and the HEP-2 cell line (ATCC CCL-23) was used as target for the RSV strain Long. Results are expressed as the average IC50 values in μM. Stavudine (STV) was included as a control.

Data set [4] is described as follows: Pharmacokinetic studies in mice, intravenous administration. It counts as in vivo, Balb/c mice. Particulars: plasma analyte = label, after i.v. 100 mg/kg compound 113.
Experimental: Female Balb/c mice (6-8 weeks old) from Taconic (Germantown, N.Y.) were housed in a controlled environment (12-hours of light/12-hours of dark, 22±1° C., 60±10% relative humidity), which is fully accredited by the USDA. All rodents were housed in microisolator cages (Lab Products, Inc., NJ) containing autoclaved bedding. The mice were allowed free access to autoclaved pellet food and tap water throughout the study.
Blood samples (˜500 μL) were obtained from the ocular venous plexus by retro-orbital venipuncture at 0, 2, 5, 10, 15, 30, 45, 60, 120, 240 and 360 minutes after intravenous injection.
All collected blood samples were heparinized and centrifuged at 7000×g for 5 minutes to separate the plasma fraction from the whole blood. The plasma samples were then processed immediately using the extraction procedure described above.
Pharmacokinetic modeling and parameter calculations were carried out using the WinNonlin Professional Version 3.0 (Pharsight, Inc., Mountain, Calif.) pharmacokinetics software (Chen et al., Pharm. Res., 16, 1003 (1999); Chen et al., Pharm. Res., 16, 117 (1999); Chen et al., J. Clin. Pharmacol., 39, 1248 (1999); Uckun et al., Clin. Cancer Res., 5, 2954 (1999); and Uckun et al., J. Pharmacol. Exp. Ther., 291, 1301 (1999)). An appropriate model was chosen on the basis of the lowest sum of weighted squared residuals, the lowest Schwartz Criterion (SC), the lowest Akaike's Information Criterion (AIC) value, the lowest standard errors of the fitted parameters, and the dispersion of the residuals. The elimination half-life was estimated by linear regression analysis of the terminal phase of the plasma concentration-time profile. The area under the concentration-time curve (AUC) was calculated according to the linear trapezoidal rule between the first sampling time (0 hours) and the last sampling time plus C/k, where C is the concentration of the last sampling and k is the elimination rate constant. The systemic clearance (CL) was determined by dividing the dose by the AUC. The metabolic clearance of the parent drug, the formation clearance of the metabolite, the clearance elimination of the metabolite, and the distribution clearance of the metabolite were estimated by simultaneous fitting of the concentration of parent drug and metabolites as a function of time curve to pharmacokinetic models (see FIGS. 7A & 8A) specified as a system of differential equations (Gabrielsson & Weiner, Phamacokinetic/Phamacodynamic Data Analysis: Concepts and Applications, Swedish Pharmaceutical Press (1997)).
Where [5] appears, read: estimate from composite curve of pooled data.

The Solubility is the concentration that dissolves in the medium under given conditions. A high value points to a readily soluble substance. Usually IC50 stands for the midpoint of a concentration-inhibition curve. The term Vss denotes the apparent volume that relates the amount in the body to the concentration in plasma or blood.

Turning to `COC(=O)C(C)NP(=O)(OCC1C=CC(n2cc(C)c(=O)[nH]c2=O)O1)Oc1ccccc1Br` (stereo not shown) [Compound 605, 5′-[2-Bromophenylmethoxyalaninyl phosphate]-2′, 3′-didehydro-3′-deoxy thymidine], the “Hydrolysis Rate” value in data set [1] came to 0.0336 min⁻¹. The molecule further displayed a Solubility in “Solubility” of 4200 µg/mL. The “Oct/Water (log P)” value in data set [2] stood at 0.95. Moreover, the concentration for half-maximal inhibition (IC50) in data set [3] amounted to 38.5 ± 22 nM.
On the same counts, the results for `COC(=O)[C@H](C)NP(=O)(OCC1C=CC(n2cc(C)c(=O)[nH]c2=O)O1)Oc1ccc(C#N)cc1` (stereo partly shown) [Compound 601, 5′-[4-Cyanophenylmethoxyalaninyl phosphate]-2′, 3′-didehydro-3′-deoxy thymidine] are 0.1199 min⁻¹, 4000 µg/mL, 0.05* and 575 ± 5 nM.
With `COC(=O)[C@H](C)NP(=O)(OCC1C=CC(n2cc(C)c(=O)[nH]c2=O)O1)Oc1ccc(Br)cc1` (stereo partly shown), the Vss in data set [4] (setting [5]) was 0.7311 L/kg; in data set [4] (mean ± S.E.M), “(791.8 ± 113.1) ml/kg”.
For the molecule `COC(=O)C(C)NP(=O)(OCC1C=CC(n2cc(C)c(=O)[nH]c2=O)O1)Oc1cc(Cl)ccc1Cl` (stereo not shown) [Compound 608, 5′-[2,5-Dichlorophenylmethoxyalaninyl phosphate]-2′, 3′-didehydro-3′-deoxy thymidine], the “Hydrolysis Rate” value in data set [1] came to 0.1840 min⁻¹. In the data set “Solubility”, this molecule came in with a Solubility of 3700 µg/mL. Further, the “Oct/Water (log P)” value in data set [2] is 1.41. In addition, in data set [3], the IC50 amounted to 33 ± 17 nM.
On the same counts, the results for `COC(=O)[C@H](C)NP(=O)(OCC1C=CC(n2cc(C)c(=O)[nH]c2=O)O1)Oc1ccc(OC)cc1` (stereo partly shown) [Compound 598, 5′-[4-Methoxyphenyl methoxylaninylphosphate]-2′, 3′-didehydro-3′-deoxy thymidine] are 0.0102 min⁻¹, 11900 µg/mL (≈ 24 mM), 0.39 and 555 ± 115 nM.
In the case of `COC(=O)[C@H](C)NP(=O)(OC[C@@H]1C=C[C@H](n2cc(C)c(=O)[nH]c2=O)O1)Oc1ccc(Br)cc1` (stereo partly shown), the Vss in data set [4] (setting [5]) was 0.8521 L/kg; in data set [4] (mean ± S.E.M) it was “(1005.3 ± 134.0) ml/kg”.
With `COC(=O)C(C)NP(=O)(OCC1C=CC(n2cc(C)c(=O)[nH]c2=O)O1)Oc1ccccc1Cl` (stereo not shown) [Compound 606, 5′-[2-Chlorophenylmethoxyalaninyl phosphate]-2′, 3′-didehydro-3′-deoxy thymidine], in data set [1], the “Hydrolysis Rate” value is 0.0370 min⁻¹. In “Solubility”, this molecule displayed a Solubility of 7300 µg/mL. In addition, the “Oct/Water (log P)” value in data set [2] is reported as 0.84. In data set [3], the half-maximal inhibitory concentration (IC50) came out at 28.5 ± 12 nM.
On to `COC(=O)C(C)NP(=O)(OCC1C=CC(n2cc(C)c(=O)[nH]c2=O)O1)Oc1cccc(Br)c1` (stereo not shown) [Compound 602, 5′-[3-Bromophenylmethoxyalaninyl phosphate]-2′, 3′-didehydro-3′-deoxy thymidine], for which the “Hydrolysis Rate” value in data set [1] is 0.0338 min⁻¹. Besides, the IC50 in data set [3] is 235 ± 145 nM.
With `COC(=O)C(C)NP(=O)(OCC1C=CC(n2cc(C)c(=O)[nH]c2=O)O1)Oc1ccc(Br)cc1Cl` (stereo not shown) [Compound 603, 5′-[4-Bromo-2-chlorophenylmethoxyalaninyl phosphate]-2′, 3′-didehydro-3′-deoxy thymidine], the “Hydrolysis Rate” value in data set [1] worked out at 0.1500 min⁻¹. The Solubility in the data set “Solubility” is 1800 µg/mL. In data set [2], the “Oct/Water (log P)” value is 1.81. Also, the IC50 in data set [3] worked out at 80 ± 10 nM.
For `COC(=O)[C@H](C)NP(=O)(OCC1C=CC(n2cc(C)c(=O)[nH]c2=O)O1)Oc1cccc(N(C)C)c1` (stereo partly shown) [Compound 599, 5′-[3-Dimethylaminophenyl methoxylaninylphosphate]-2′, 3′-didehydro-3′-deoxy thymidine], the “Hydrolysis Rate” value in data set [1] was found to be 0.0058 min⁻¹. Moreover, the Solubility in the data set “Solubility” was 18000 µg/mL (≈ 35.4 mM). Besides, in data set [2], the “Oct/Water (log P)” value amounted to 0.76. In data set [3], the IC50 turned out to be 230 ± 20 nM.
The corresponding values for `COC(=O)C(C)NP(=O)(OCC1C=CC(n2cc(C)c(=O)[nH]c2=O)O1)Oc1c(OC)cccc1OC` (stereo not shown) [Compound 600, 5′-[2,6-Dimethoxyphenylmethoxyalaninyl phosphate]-2′, 3′-didehydro-3′-deoxy thymidine] are 0.0029 min⁻¹, 43600 µg/mL, 0.40 and 290 ± 120 nM.
On the same counts, the results for `COC(=O)[C@H](C)NP(=O)(OCC1C=CC(n2cc(C)c(=O)[nH]c2=O)O1)Oc1ccc(F)cc1` (stereo partly shown) [Compound 604, 5′-[4-Flurophenylmethoxyalaninyl phosphate]-2′, 3′-didehydro-3′-deoxy thymidine] are 0.0117 min⁻¹, 7500 µg/mL, 0.54 and 100 ± 40 nM.
The corresponding values for `COC(=O)[C@H](C)NP(=O)(OCC1C=CC(n2cc(C)c(=O)[nH]c2=O)O1)Oc1ccccc1` (stereo partly shown) [Compound 607, 5′-[Phenyl methoxylaninylphosphate]-2′, 3′-didehydro-3′-deoxy thymidine] are 0.0082 min⁻¹, 44700 µg/mL (≈ 96 mM), 0.38 and 57.5 ± 23 nM.
